Results taken from patent publication US20040077625A1, “Novel 1,4-benzothiazepine and 1,5-benzothiazepine compounds as inhibitors of apical sodium codependent bile acid transport abd taurocholate uptake” (priority 2001, published 2004).

Target: T1, human IBAT (Homo sapiens, UniProt Q12908)
T1 construct: expressed in transfected cells; host or cells: Baby hamster kidney (BHK) cells, H14 cells
T1 sequence (Q12908 1-348): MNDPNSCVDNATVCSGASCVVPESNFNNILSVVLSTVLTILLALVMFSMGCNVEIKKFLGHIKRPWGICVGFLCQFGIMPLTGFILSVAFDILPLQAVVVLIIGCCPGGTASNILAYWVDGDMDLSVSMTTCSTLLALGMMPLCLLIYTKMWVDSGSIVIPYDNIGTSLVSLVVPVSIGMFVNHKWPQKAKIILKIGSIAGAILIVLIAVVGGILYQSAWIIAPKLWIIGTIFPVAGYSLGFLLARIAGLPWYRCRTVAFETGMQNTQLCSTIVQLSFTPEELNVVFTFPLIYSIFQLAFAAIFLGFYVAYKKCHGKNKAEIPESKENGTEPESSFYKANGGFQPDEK
Test: In vitro assay of compounds that inhibit IBAT-mediated uptake of [14C]-taurocholate (TC) in H14 cells
Assay type: cell-based
Conditions: Table 8, 1, 4 and 1, 5 benzothiazipines
Description: In Vitro Assay of Compounds that Inhibit IBAT-Mediated Uptake of [^14C]-Taurocholate (TC) in H14Cells
Baby hamster kidney cells (BHK) transfected with the cDNA of human IBAT (H14 cells) are seeded in 96 well Top-Count tissue culture plates at 60,000 cells/well for assays run within 24 hours of seeding, 30,000 cells/well for assays run within 48 hours, and 10,000 cells/well for assays run within 72 hours.
On the day of assay, the cell monolayer is gently washed once with […] (Dulbecco's Modified Eagle's medium with 4.5 g/L glucose plus 0.2% (w/v) fatty acid free bovine serum albumin ((FAF)BSA). To each well […] of a two-fold concentrate of test compound in assay buffer is added along with […] of […] [^14C]-taurocholate in assay buffer (final concentration of […] [^14C]-taurocholate). The cell culture plates are incubated 2 hours at 37° C. prior to gently washing each well twice with […] 4° C. Dulbecco's phosphate-buffered saline (PBS) containing 0.2% (w/v) (FAF)BSA. The wells are then gently washed once with […] 4° C. PBS without (FAF)BSA. To each […] of liquid, scintillation counting fluid is added. The plates are heat sealed and shaken for 30 minutes at room temperature prior to measuring the amount of radioactivity in each well on a Packard Top-Count instrument.

Q: With `CCCCC1(CCCC)CS(=O)(=O)c2ccc(N(C)C)cc2[C@@H](c2ccc(OC)cc2)N1` (racemic) [Compound 2, 3.3-Dibutyl-2.3,4,5-tetrahydro-7-dimethylamino-5-(4′-methoxyphenyl)-1,4-benzothiazepine 1,1-dioxide] as the molecule, how does the IC50 read?
A: The IC50 was 0.497 µM.
